Test results: patent US10336748B2, “Methyoxy-substituted pyrrolopyridine modulators of RORC2 and methods of use thereof” (Pfizer Inc., priority 2015, dated 2019)

Tests used:
human Th17 cells = test: IL-17 production from human Th17 cells; assay type: cell-based; details: 144 h; IL-17A in supernatant by ELISA (MSD) after 6 days, human CD4+ T cells, anti-CD3 + anti-CD28 + cytokine cocktail
Description: The activity of compound of the invention can be also be determined by an IL-17 production from human Th17 cells assay. In general, this assay measures blockade of IL-17 production, the signature cytokine of T helper 17 (Th17) cells, by compounds. Purified human CD4+ T cells are stimulated with anti-CD3+anti-CD28 and incubated with a cytokine cocktail that induce their differentiation into Th17 in the absence or presence of various concentrations of compound. After 6 days, IL-17A concentration is measured in the cell culture supernatant with an ELISA kit (MSD).
Preparation of human CD4+ T cells. CD4+ T cells were purified from buffy coats from healthy donors (obtained from Massachusetts General Hospital) by negative selection the following procedure: Mixing 25 mL of blood with 1 mL of Rosette Sep CD4+ T cell enrichment cocktail (StemCell Technologies) followed by application of a layer of 14 mL Ficoll Paque Plus (Amersham GE Healthcare) and subsequent centrifugation at 1200 g for 20 min at room temperature. The Ficoll layer was then harvested and washed with phosphate saline buffer containing 2% (v/v) fetal bovine serum and cells were resuspended with RPMI medium containing 10% (v/v) fetal bovine serum and 10% (v/v) DMSO, frozen and kept in LN2 until used.
On the first day of the assay, a vial containing 10^7 CD4+ T cells is thawed rapidly in 37° C. water bath, immediately transferred into 20 mL X-Vivo 15 medium (Lonza), is spun for 6 min at 300×g, the supernatant is discarded, and the resulting pellet is re-suspended at 10^6 cells/mL in […] fresh X-Vivo 15 medium, followed by storage overnight in a tissue culture vessel in a humidified chamber at 37° C. and 5% CO2. Serial dilutions of compounds of the invention are prepared at 10× final concentration in X-Vivo15 medium containing 3% (v/v) DMSO.
On the second day of the assay, a 384-well tissue culture plate was coated with 10 μg/mL anti-hCD3 (eBioscience) at 50 μL/well. After 2 hr at 37° C., the supernatant is discarded and the coated plates are kept in a sterile tissue culture hood.
Cytokine plus anti-CD28 cocktail is prepared by mixing 25 ng/mL hIL-6 (Peprotech), 5 ng/mL hTGFbeta1 (Peprotech), 12.5 ng/mL IL-1beta (Peprotech), 25 ng/mL hIL-21, 25 ng/mL hIL-23 (R&D Systems), and 1 ug/mL anti-hCD28 (eBioscience) in X-Vivo 15 medium. The cytokine plus anti-CD28 cocktail with CD4+ cells is prepared such that the cocktail is diluted 10-fold and cell density is 0.22×10^6/mL. The mixture is incubated 1 hr at 37° C.
90 μL (20,000 cells) dispensed per well in the anti-hCD3 coated plate prepared as noted above.
10 μL 10× compound is added per well (final DMSO=0.3%) from the compound plate that was previously prepared, followed by 6 days of incubation in a tissue culture vessel in a humidified chamber at 37° C. and 5% CO2.
On day six of the assay, production of IL-17A in 10 μL of the supernatant is determined by sandwich ELISA using 384w hIL17 MSD plates following the manufacturer's protocol. Measurement is carried out in a Sector Imager 6000 by the same manufacturer. Signal units from the instrument are converted to pg/mL using a calibration curve with known amounts of IL-17A. IC50 values of test compounds (Table 2) are determined by the non-linear regression analysis of dose response curves.

[1] = biological target: T1, RORC2 ligand binding domain (6-His-RORC2 LBD) (Homo sapiens, UniProt P51449); test: Co-activator recruitment by TR-FRET; assay type: biochemical; details: 6.3 nM RORC2 LBD, 200 nM SRC1-2 coactivator peptide, 3 hr room temperature
T1 construct: made in house; host or cells: E. coli
T1 sequence (P51449 269-508 limits assumed): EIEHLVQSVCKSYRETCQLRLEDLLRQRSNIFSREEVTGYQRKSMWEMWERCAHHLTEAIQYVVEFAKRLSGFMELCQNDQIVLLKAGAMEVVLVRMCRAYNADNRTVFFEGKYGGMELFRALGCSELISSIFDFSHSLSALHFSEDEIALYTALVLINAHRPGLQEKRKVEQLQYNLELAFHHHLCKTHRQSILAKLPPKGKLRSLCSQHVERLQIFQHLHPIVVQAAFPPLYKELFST
Excerpt: The activity of compound of the invention can be determined by a co-activator recruitment by TR-FRET (time-resolved fluorescence resonance energy transfer) assay. In general, the assay is based on the interaction between N-terminally Six-Histidine-tagged-RORC2 ligand binding domain (6-His-RORC2 LBD), expressed in E. coli and purified by affinity chromatography, and biotin-coactivator peptide SRC1-2 (biotin-aminohexanoic acid-[…]-NH2; SEQ ID NO: 1) containing the LXXLL consensus domain which is responsible for receptor binding. This interaction is detected by addition of Europium labeled-anti-His antibody (Ex. 337 nm, Em. 620 nm, which binds to 6His) and Streptavidin-APC (Ex. 620 nm, Em. 665 nm, which binds to biotin). When receptor and coactivator are bound to each other, upon shining light at 337 nm on the sample, the Europium emits fluorescence that excites APC due to close proximity (FRET) and this signal is measured at 665 nm. Due to the long lasting fluorescence emission of Europium, the non-specific, short-lived fluorescence is time-resolved (TR) from the fluorescence of interest. Inhibitors of the interaction of receptor and coactivator peptide are detected by a decrease in TR-FRET signal.
Specifically, in one embodiment the aforementioned assay was performed as outlined below. The assay was carried out in black polystyrene. 384-well plates in a total assay volume of 50.5 μL. The assay buffer contained 50 mM TRIS-HCL pH 7.5, 1 mM NaCl, 2 mM MgCl2, 0.5 mg/mL bovine serum albumin, and 5 mM dithiothreitol. The final concentration of reagents was 6.3 nM RORC2 LBD, 200 nM SRC1-2, 50 nM streptavidin APC, 1 nM Europium-labeled anti-His antibody, and varying concentrations of compounds such that final concentration of DMSO is 1% (v/v). The assay steps were: (1) dispensing […] compound at 100× final concentration in DMSO (test wells) or DMSO only (control wells for no inhibition); and (2) dispensing 50 μL mixture of the other assay components including receptor (test wells) or excluding receptor (control wells for maximal inhibition).
Assay mixtures were incubated are room temperature for 3 hr and read in EnVision 2100 Multilabel Reader (PerkinElmer Life Sciences) at Excitation Filter 320, Emission Europium Filter 615, Emission APC Filter 665, Dichroic Mirror D400/D630.
TR-FRET signal was determined by calculating the ratio of 665 nm by 615 nm and […] values of compounds of the invention (Table 1) were determined by the non-linear regression analysis of dose response curves.

IC50 (human Th17 cells)	IC50 [1]	Structure (SMILES)
112 nM	23.2 nM	COc1c(NC(=O)c2cccc(C#N)c2)cnc2c1c([C@@H]1[C@@H]3CC[C@H]1CN(C(=O)C(C)C)C3)cn2C [Example 20, 3-cyano-N-(3-(3-isobutyryl-3-azabicyclo[3.2.1]octan-8-yl)-4-methoxy-1-methyl-1H-pyrrolo[2,3-b]pyridin-5-yl)benzamide]
10.6 nM	6.1 nM	COc1c(NC(=O)c2cccc(C#N)c2)cnc2c1c(C1CCN(C(=O)[C@H](C)C(C)(C)C)CC1)cn2C [Example 5, (R)-3-cyano-N-(4-methoxy-1-methyl-3-(1-(2,3,3-trimethylbutanoyl)piperidin-4-yl)-1H-pyrrolo[2,3-b]pyridin-5-yl)benzamide]
6.4 nM	10.4 nM	COc1c(NC(=O)c2cccc(C#N)c2)cnc2c1c([C@@H]1CCN(C(=O)[C@H](C)C(C)(C)C)C(C)(C)C1)cn2C [Example 26, 3-cyano-N-(3-((R)-2,2-dimethyl-1-((R)-2,3,3-trimethylbutanoyl)piperidin-4-yl)-4-methoxy-1-methyl-1H-pyrrolo[2,3-b]pyridin-5-yl)benzamide]
12.7 nM	3.2 nM	COc1c(NC(=O)c2ccc(SC)c(C#N)c2)cnc2c1c(C1CCN(C(=O)[C@H](C)C(C)(C)C)CC1)cn2C [Example 35, (R)-3-cyano-N-(4-methoxy-1-methyl-3-(1-(2,3,3-trimethylbutanoyl)piperidin-4-yl)-1H-pyrrolo[2,3-b]pyridin-5-yl)-4-(methylthio)benzamide]
6.7 nM	13.5 nM	COc1ccc(C(=O)Nc2cnc3c(c([C@@H]4CCN(C(=O)C5CCCC5)C(C)(C)C4)cn3C)c2OC)cc1C#N [Example 30, (R)-3-cyano-N-(3-(1-(cyclopentanecarbonyl)-2,2-dimethylpiperidin-4-yl)-4-methoxy-1-methyl-1H-pyrrolo[2,3-b]pyridin-5-yl)-4-methoxybenzamide]
